{
  "source": "patent US6338963B1",
  "about": "“Use of carbon monoxide dependent guanylyl cyclase modifiers to stimulate neuritogenesis” (NeoTherapeutics, Inc., priority 1994, dated 2002)",
  "key": {"PC12 cells": {"system": "PC12 cells", "assay": "Neuritogenesis in PC12 cells", "format": "cell-based, rat", "parameters": "key to Neuritogenesis: fraction of cells bearing neurites (mean ± SEM)", "in_short": "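Rat pheochromocytoma PC12 cells on poly-ornithine were treated with AIT-082 alongside saturating NGF (40 ng/ml) from plating for 48 h, then formalin-fixed. Neurites ≥1 cell-body diameter with growth cone were counted; the neurite-bearing fraction is expressed relative to NGF alone (100%), mean ±SEM of 6 cultures.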"}, "NGF": {"system": "NGF", "assay": "Western blot of astrocyte cytosolic proteins: NGF", "format": "cell-based, rat", "description": "Western blot analysis of cytosolic proteins from cultured astrocytes was performed to detect the factors NGF and TGFβ2. The results are shown in FIG. 58A for NGF at 6 and 12 hours and in FIG. 58B for TGFβ2 at 6 and 12 hours.\nWestern blot analysis of cytosolic proteins deriving from cultured astrocytes treated for 6 or 12 hours with 100 μM AIT-082 was performed. AIT-082 is able to promote the production of neurotrophic factors from rat cultured astrocytes as measured by Western blot analysis. The results are shown in FIG. 62A for NGF and in FIG. 62B for TGFβ2. Electrophoresis was performed in 12% (for NBF) or 15% (for TGFβ2) SDS-PAGE (20 μg of total protein per lane). The separated proteins were transferred onto a PVDF membrane (Bio-Rad Laboratories, Italy)."}, "BDNF mRNA": {"system": "BDNF mRNA", "assay": "Northern blot of neurotrophin mRNA from astrocytes: BDNF", "format": "cell-based, NIH Swiss mice", "parameters": "key: The conditions which produced a detectable amount of each of the neurotrophin mRNAs are indicated by a “+”; a “++” indicating that at least twice the detectable amount was present; Those blots which were negative are indicated by a “−”", "details": "24 hours", "description": "Induction of neurotrophin mRNA was determined by northern blot analysis of astrocytes cultured with AIT-082, NGF, or both. The cells were harvested and RNA extracted at 24 hours after treatment.\nMore particularly, astrocytes from the cerebral cortex of NIH Swiss mice (Harlan) were isolated. Briefly, newborn pups (0-24 hours) were decapitated. Their brains were removed under aseptic conditions and were placed in modified Dulbecco's medium (DMEM) containing 20% heat-inactivated horse serum (Hyclone) (“complete medium”). The neopallium was then dissected from each cerebral hemisphere and minced into 1 mm cubes.\nThe astrocytes were then isolated by mechanical dissociation. The cubes were vortexed at maximum speed for one minute. The cell suspension was then passed first through 75 mm Nitex then through 10 mm Nitex. The resulting cell suspension was diluted in complete medium to a final concentration of one brain per 10 ml of complete medium. Ten milliliters of the diluted cell suspension was added to each 100 mm Falcon tissue culture plate (Fisher). After 3 days the medium was replaced with 10 ml fresh complete medium and subsequently was replaced twice weekly with DMEM containing 10% heat inactivated horse serum (“growth medium”). After two weeks in culture the astrocytes formed a confluent monolayer.\nFor RNA extraction, astrocytes were trypsinized. The astrocytes were then replated onto 100 mm PORN coated plates at a cell density of 10^6 cells per plate (10 ml growth medium). […]\nThe blots were probed with ^32P-labeled cDNA (NGF, NT-3 and BDNF probes) or oligonucleotide probe (FGF-2) by hybridization in Piperazine-N,N′-bis-(2-ethanesulfonic acid) (PIPES) buffer (50 mM PIPES, pH 6.8; 50 mM NaH2PO4; 0.1 M NaCl; 5% SDS and 1 mM EDTA) overnight at 50° C. […] Various concentrations ([…] of total RNA), as determined by spectrophotometry, of each sample were blotted and probed so that quantification could be done after insuring a linear film response. Quantification was performed using MCID Image Analysis (St. Catherine's, Ontario, Canada). […]"}},
  "data": [
    {"smiles": "O=C(CCn1cnc2c(=O)[nH]cnc21)Nc1ccc(C(=O)O)cc1", "note": "[AIT-082, N-4-carboxyphenyl-3-(6-oxohydropurin-9-yl)propanamide]", "values": [
      {"measurement": "Neuritogenesis", "setting": "PC12 cells; AIT-082 10 μM, L-NAME 0.1 μM", "result": "0.220 ± 0.010"},
      {"measurement": "Neuritogenesis", "setting": "PC12 cells; AIT-082 10 μM, L-NAME 1.0 μM", "result": "0.302 ± 0.027"},
      {"measurement": "Neuritogenesis", "setting": "PC12 cells; AIT-082 10 μM, L-NAME 10.0 μM", "result": "0.254 ± 0.018"},
      {"measurement": "Neuritogenesis", "setting": "PC12 cells; AIT-082 10 μM, L-NAME None", "result": "0.254 ± 0.008"},
      {"measurement": "Neuritogenesis", "setting": "PC12 cells; AIT-082 100 μM, L-NAME 0.1 μM", "result": "0.257 ± 0.016"},
      {"measurement": "Neuritogenesis", "setting": "PC12 cells; AIT-082 100 μM, L-NAME 1.0 μM", "result": "0.232 ± 0.019"},
      {"measurement": "Neuritogenesis", "setting": "PC12 cells; AIT-082 100 μM, L-NAME 10.0 μM", "result": "0.289 ± 0.006"},
      {"measurement": "Neuritogenesis", "setting": "PC12 cells; AIT-082 100 μM, L-NAME None", "result": "0.309 ± 0.027"},
      {"measurement": "Proportion of cells bearing neurites, AIT-082 + NGF", "setting": "PC12 cells; AIT-082 10 mM + NGF 40 ng/ml, no inhibitor", "result": "0.26 ± 0.01"},
      {"measurement": "Proportion of cells bearing neurites, AIT-082 alone", "setting": "PC12 cells; AIT-082 10 mM, no NGF, no inhibitor, 48 hours", "result": "0.2 ± 0.02"},
      {"measurement": "Proportion of cells bearing neurites, AIT-082 + NGF", "setting": "PC12 cells; AIT-082 + NGF 40 ng/ml, Methemoglobin 1 μM", "result": "0.17 ± 0.02"},
      {"measurement": "Proportion of cells bearing neurites, AIT-082 + NGF", "setting": "PC12 cells; AIT-082 + NGF 40 ng/ml, Methylene Blue 5 μM", "result": "0.10 ± 0.01"},
      {"measurement": "Proportion of cells bearing neurites, AIT-082 + NGF", "setting": "PC12 cells; AIT-082 + NGF 40 ng/ml, Zn Protoporphyrin IX 1 μM", "result": "0.13 ± 0.01"},
      {"measurement": "concentration effective in stimulating neuritogenesis and enhancing NGF-stimulated neuritogenesis", "setting": "PC12 cells; PC12 cells, 48 hours", "result": 1, "unit": "mM"},
      {"measurement": "neuritogenesis compared with NGF", "setting": "PC12 cells; PC12 cells, 48 hours", "result": "as effective as NGF"},
      {"measurement": "enhancement of the optimal effects of NGF on neuritogenesis", "setting": "PC12 cells; with 40 ng/ml NGF, 48 hours", "result": 30, "unit": "%"},
      {"measurement": "intracellular levels of NGF", "setting": "NGF; 100 μM AIT-082, 6 or 12 hours", "result": "increased in time-dependent manner"},
      {"measurement": "BDNF mRNA", "setting": "BDNF mRNA; AIT-082 100 mM", "result": "+"},
      {"measurement": "BDNF mRNA", "setting": "BDNF mRNA; AIT-082 + NGF (40 ng/ml)", "result": "+"}
    ]},
    {"smiles": "Nc1nc2c(ncn2[C@@H]2O[C@H](CO)[C@@H](O)[C@H]2O)c(=O)[nH]1", "note": "[guanosine]", "values": [
      {"measurement": "neurite outgrowth in the absence of NGF", "setting": "PC12 cells; compound alone", "result": "slightly increased the proportion of cells with neurites"},
      {"measurement": "enhancement of NGF-induced neurite outgrowth", "setting": "PC12 cells; in the presence of NGF, 48 hours", "result": "enhanced the neurite outgrowth induced by NGF"},
      {"measurement": "intracellular content of NGF", "setting": "NGF; guanosine, 6 and 12 hours", "result": "increased the intracellular content of NGF and TGFβ2 in time-dependent fashion"}
    ]}
  ]
}
